Values of other authors, collected in patent US20040131704A1, “A method of organic and all natural treatment, prevention and relief of diaper dermatitis and other related skin irritations” (priority 2003, published 2004).

Columns and labels:
[1] = relative activity of triterpenoids
[2] = system: 18 strains of gram positive and gram-negative bacteria
[3] = topical application of Lavender oil
epithelial formations = conditions: aqueous solution in strengths of 0.30 percent

Question: For faradoil monoester, which anti-inflammatory activity [1] is on record?
Answer: most relevant principle for the activity of the drug

Question: For `CC1(C)CC[C@]2(C)CC[C@]3(C)C(=CC[C@@H]4[C@@]5(C)CC[C@H](O)C(C)(C)[C@@H]5CC[C@]43C)[C@@H]2C1` [beta-amyrin], which anti-inflammatory activity [1] is on record?
Answer: less active than the free diol

Question: Which “number of strains with antibacterial activity” value [2] does the source give for `CC12CCC(CC1)C(C)(C)O2` [cineole] here?
Answer: 16 out of 18 strains

Question: For `C=C1CC[C@]2(C)CC[C@]3(C)[C@H](CC[C@@H]4[C@@]5(C)CC[C@H](O)C(C)(C)[C@@H]5CC[C@]43C)[C@H]2[C@@H]1C` [taraxasterol], which anti-inflammatory activity [1] is on record?
Answer: less active than the free diol

Question: With `CC1=CCC2(C)CCC3(C)C(CCC4C5(C)CCC(O)C(C)(C)C5CCC43C)C2C1C` (stereo not shown) [psi-taraxzsterol] as the compound, how does the anti-inflammatory activity [1] read?
Answer: less active than the free diol

Question: For `C=CC(C)(CCC=C(C)C)OC(C)=O` (stereo not shown) [linalyl acetate], which “time of peak in the blood” value [3] is on record?
Answer: 19 min

Question: What about the “time to detection in the blood” value [3] of the same compound?
Answer: five

Question: For `CC1=CC[C@@]2(C)[C@H]([C@@H]1C)[C@H]1CC[C@@H]3[C@@]4(C)CC[C@H](O)C(C)(C)[C@@H]4CC[C@@]3(C)[C@]1(C)C[C@@H]2O` [faradiol], which anti-inflammatory activity [1] is on record?
Answer: most active of the tested compounds and equals indomethacian in activity

Question: With `NC(=O)NC1NC(=O)NC1=O` (stereo not shown) [Allantoin] as the compound, how does the “action in strengthening epithelial formations” value (epithelial formations) read?
Answer: powerful action

Question: What does the source list for `C=CC(C)(O)CCC=C(C)C` (stereo not shown) [Linalool]?
Answer: number of strains with antibacterial activity [2]: 17 out of 18 strains; time of peak in the blood [3]: 19 min; time to detection in the blood [3]: five

Question: For `C=C(C)[C@@H]1CC[C@]2(C)CC[C@]3(C)[C@H](CC[C@@H]4[C@@]5(C)CC[C@H](O)C(C)(C)[C@@H]5CC[C@]43C)[C@@H]12` [lupeol], which anti-inflammatory activity [1] is on record?
Answer: less active than the free diol
